# From ChEMBL document CHEMBL5113489, “Design, synthesis, and biological evaluation of membrane-active honokiol derivatives as potent antibacterial agents” (Eur J Med Chem, 2022)
# The source made the active and inactive calls. The calls are words filed in the database; no cut-off is given here.
# What was measured:
# Staphylococcus aureus [1] = experiment: Anti-biofilm activity in Staphylococcus aureus ATCC 43300 assessed as disruption rate of biofilm at 8 ug/ml measured by crystal violet staining method; assay type: functional; settings: dose 8 µg/ml
# Escherichia coli [2] = experiment: Anti-biofilm activity in Escherichia coli ATCC 25922 assessed as disruption rate of biofilm at 8 ug/ml measured by crystal violet staining method; assay type: functional; settings: dose 8 µg/ml
# Staphylococcus aureus [3] = experiment: Anti-biofilm activity in Staphylococcus aureus ATCC 43300 assessed as disruption rate of biofilm at 0.5 ug/ml measured by crystal violet staining method; assay type: functional; settings: dose 0.5 µg/ml
# Escherichia coli [4] = experiment: Anti-biofilm activity in Escherichia coli ATCC 25922 assessed as inhibition of biofilm formation at 32 ug/ml; assay type: functional
# Staphylococcus aureus [5] = experiment: Anti-biofilm activity in Staphylococcus aureus ATCC 43300 assessed as disruption rate of biofilm at 2 ug/ml measured by crystal violet staining method; assay type: functional; settings: dose 2 µg/ml
# Escherichia coli [6] = experiment: Anti-biofilm activity in Escherichia coli ATCC 25922 assessed as disruption rate of biofilm at 2 ug/ml measured by crystal violet staining method; assay type: functional; settings: dose 2 µg/ml
# Escherichia coli [7] = experiment: Antibacterial activity against Escherichia coli ATCC 25922 assessed as bacterial killing at 8XMIC incubated for 3 hrs and measured by time-kill kinetic study; assay type: functional
# Escherichia coli [8] = experiment: Antibacterial activity against Escherichia coli ATCC 25922 assessed as resistance development by measuring fold increase in MIC; assay type: functional
# Staphylococcus aureus [9] = experiment: Anti-biofilm activity in Staphylococcus aureus ATCC 43300 assessed as inhibition of biofilm formation at 2 ug/ml; assay type: functional
# Staphylococcus aureus [10] = experiment: In vivo antibacterial activity against Staphylococcus aureus ATCC 43300 in septicemia mouse model assessed as log reduction in bacterial load in liver at 10 mg/kg, administered every 12 hrs for 3 days; assay type: functional
# [11] = Cytotoxicity against human HepG2 cells assessed as cell viability at 128 ug/ml measured by SRB assay; assay type: toxicity, cell-based; settings: dose 128 µg/ml, read-out: Activity
# Escherichia coli [12] = experiment: Antibacterial activity against Escherichia coli ATCC 25922 assessed as bacterial killing at 4 x MIC incubated for 9 hrs and measured by time-kill kinetic study; assay type: functional
# Cell membrane [13] = experiment: Induction of cytoplasmic membrane depolarization in Staphylococcus aureus ATCC 43300 assessed as increase in fluorescence intensity at 1 to 8 times MIC measured by DiSC3-5 dye based fluorescence method; assay type: subcellular
# [14] = Selectivity index, ratio of HC50 for hemolytic activity in sheep RBC to MIC for antibacterial activity against Staphylococcus aureus ATCC 43300; assay type: toxicity; settings: sheep red blood cells (erythrocytes)
# Escherichia coli [15] = experiment: Anti-biofilm activity in Escherichia coli ATCC 25922 assessed as inhibition of biofilm formation at 2 ug/ml; assay type: functional
# Staphylococcus aureus [16] = experiment: In vivo antibacterial activity against Staphylococcus aureus ATCC 43300 in septicemia mouse model assessed as reduction in bacterial load in liver at 10 mg/kg, administered every 12 hrs for 3 days; assay type: functional; design: scale not given: the % may be the effect or the level left
# Escherichia coli [17] = experiment: Anti-biofilm activity in Escherichia coli ATCC 25922 assessed as disruption rate of biofilm at 16 ug/ml measured by crystal violet staining method; assay type: functional; settings: dose 16 µg/ml
# Staphylococcus aureus [18] = experiment: Anti-biofilm activity in Staphylococcus aureus ATCC 43300 assessed as disruption rate of biofilm at 16 ug/ml measured by crystal violet staining method; assay type: functional; settings: dose 16 µg/ml
# Staphylococcus aureus [19] = experiment: In vivo antibacterial activity against Staphylococcus aureus ATCC 43300 in septicemia mouse model assessed as log reduction in bacterial load in kidney at 10 mg/kg, administered every 12 hrs for 3 days; assay type: functional
# [20] = Cytotoxicity against human HepG2 cells assessed as cell viability at 8 ug/ml measured by SRB assay; assay type: toxicity, cell-based; settings: at 8 µg/mL, read-out: Activity
# [21] = Cytotoxicity against human HepG2 cells assessed as cell viability at 16 ug/ml measured by SRB assay; assay type: toxicity, cell-based; settings: at 16 µg/mL, read-out: Activity
# Cell membrane [22] = experiment: Induction of cytoplasmic membrane depolarization in Escherichia coli ATCC 25922 assessed as increase in fluorescence intensity at 1 to 8 times MIC measured by DiSC3-5 dye based fluorescence method; assay type: subcellular
# Cell membrane [23] = experiment: Induction of inner membrane permeabilization in Staphylococcus aureus ATCC 43300 assessed as increase in PI uptake by measuring increase in fluorescence intensity at 1 to 8 ug/ml by propidium iodide staining based fluorescence analysis; assay type: subcellular; settings: dose 1-8 µg/ml
# Cell membrane [24] = experiment: Induction of cell membrane disruption in Staphylococcus aureus ATCC 43300 assessed as increase in fluorescence intensity at 8 times MIC measured after 2 hrs by DAPI staining based fluorescence microscopic analysis
# Cell membrane [25] = experiment: Induction of cell membrane disruption in Staphylococcus aureus ATCC 43300 assessed as increase in fluorescence intensity at 8 times MIC measured after 2 hrs by PI staining based fluorescence microscopic analysis; assay type: subcellular
# Staphylococcus aureus [26] = experiment: Anti-biofilm activity in Staphylococcus aureus ATCC 43300 assessed as disruption rate of biofilm at 1 ug/ml measured by crystal violet staining method; assay type: functional; settings: dose 1 µg/ml
# [27] = Cytotoxicity against human HepG2 cells assessed as cell viability at 4 ug/ml measured by SRB assay; assay type: toxicity, cell-based; settings: at 4 µg/mL, read-out: Activity
# Escherichia coli [28] = experiment: Anti-biofilm activity in Escherichia coli ATCC 25922 assessed as inhibition of biofilm formation at 1 ug/ml; assay type: functional
# Staphylococcus aureus [29] = experiment: Anti-biofilm activity in Staphylococcus aureus ATCC 43300 assessed as inhibition of biofilm formation at 4 ug/ml; assay type: functional
# Bacillus subtilis = experiment: Antibacterial activity against Bacillus subtilis ATCC 9372; assay type: functional
# [30] = Cytotoxicity against human HepG2 cells assessed as cell viability at 64 ug/ml measured by SRB assay; assay type: toxicity, cell-based; settings: at 64 µg/mL, read-out: Activity
# [31] = Cytotoxicity against human HepG2 cells assessed as cell viability at 32 ug/ml measured by SRB assay; assay type: toxicity, cell-based; settings: at 32 µg/mL, read-out: Activity
# Escherichia coli [32] = experiment: Anti-biofilm activity in Escherichia coli ATCC 25922 assessed as inhibition of biofilm formation at 4 ug/ml; assay type: functional
# Cell membrane [33] = experiment: Induction of cell membrane disruption in Escherichia coli ATCC 25922 assessed as increase in fluorescence intensity at 8 times MIC measured after 2 hrs by PI staining based fluorescence microscopic analysis; assay type: subcellular
# Staphylococcus aureus [34] = experiment: Anti-biofilm activity in Staphylococcus aureus ATCC 43300 assessed as inhibition of biofilm formation at 8 ug/ml; assay type: functional
# Staphylococcus aureus [35] = experiment: In vivo antibacterial activity against Staphylococcus aureus ATCC 43300 in septicemia mouse model assessed as log reduction in bacterial load in spleen at 10 mg/kg, administered every 12 hrs for 3 days; assay type: functional
# Staphylococcus aureus [36] = experiment: Antibacterial activity against Staphylococcus aureus ATCC 25923; assay type: functional
# Staphylococcus aureus [37] = experiment: Anti-biofilm activity in Staphylococcus aureus ATCC 43300 assessed as inhibition of biofilm formation at 1 ug/ml; assay type: functional
# Staphylococcus aureus [38] = experiment: Anti-biofilm activity in Staphylococcus aureus ATCC 43300 assessed as inhibition of biofilm formation at 0.25 ug/ml; assay type: functional
# Staphylococcus aureus [39] = experiment: Antibacterial activity against Staphylococcus aureus ATCC 31007; assay type: functional
# Pseudomonas aeruginosa = experiment: Antibacterial activity against Pseudomonas aeruginosa ATCC 27853; assay type: functional
smiles,measurement,setting,value
C=CCc1ccc(OCCC[N+](C)(C)CCCCCC)c(-c2ccc(OCCC[N+](C)(C)CCCCCC)c(CC=C)c2)c1.[Br-].[Br-],Activity,Staphylococcus aureus [1],28.56%
same,Activity,Escherichia coli [2],46.42%
same,Activity,Staphylococcus aureus [3],5.22%
same,inhibition at 32 µg/mL,Escherichia coli [4],87.4%
same,Activity,Staphylococcus aureus [5],11.43%
same,Activity,Escherichia coli [6],15.1%
same,Activity,Escherichia coli [7],100%
same,fold change (FC),Escherichia coli [8],<4
same,inhibition at 2 µg/mL,Staphylococcus aureus [9],20.1%
same,log(activity),Staphylococcus aureus [10],2.35
same,viability at 128 ug/ml,[11],36.6%
same,Activity,Escherichia coli [12],>=99%
same,Activity,Cell membrane [13],Active
same,selectivity ratio,[14],410
same,inhibition at 2 µg/mL,Escherichia coli [15],24.3%
same,Activity,Staphylococcus aureus [16],99.5%
same,Activity,Escherichia coli [17],51.55%
same,Activity,Staphylococcus aureus [18],39.12%
same,log(activity),Staphylococcus aureus [19],1.94
same,viability at 8 ug/ml,[20],90.3%
same,viability at 16 ug/ml,[21],85.4%
same,Activity,Cell membrane [22],Active
same,Activity,Cell membrane [23],Active
same,Activity,Cell membrane [24],Active
same,Activity,Cell membrane [25],Active
same,Activity,Staphylococcus aureus [26],9.59%
same,viability at 4 ug/ml,[27],94.7%
same,inhibition at 1 µg/mL,Escherichia coli [28],11.3%
same,inhibition at 4 µg/mL,Staphylococcus aureus [29],91.2%
same,MIC,Bacillus subtilis,1 µg/mL
same,viability at 64 ug/ml,[30],55.2%
same,viability at 32 ug/ml,[31],68.1%
same,inhibition at 4 µg/mL,Escherichia coli [32],35.3%
same,Activity,Cell membrane [33],Active
same,inhibition at 8 µg/mL,Staphylococcus aureus [34],93.7%
same,log(activity),Staphylococcus aureus [35],2.19
same,MIC,Staphylococcus aureus [36],2 µg/mL
same,inhibition at 1 µg/mL,Staphylococcus aureus [37],12.9%
same,inhibition at 0.25 µg/mL,Staphylococcus aureus [38],4.06%
same,MIC,Staphylococcus aureus [39],0.5 µg/mL
same,MIC,Pseudomonas aeruginosa,16 µg/mL
